This passage reports IC50 results from ChEMBL document CHEMBL2406972, “Synthesis and antitumor activities of novel dibenzo[b,d]furan-imidazole hybrid compounds” (Eur J Med Chem, 2013).

Holding throughout (type): functional, cell-based
For one assay, the system named is A549. The assay can be described thus: Cytotoxicity against human A549 cells after 48 hrs by MTT assay. The conditions noted are these: A549, 48 h. In general terms: Tetrazolium assays rely on reduction of a dye to a coloured formazan, in cell work by metabolically active cells.
The subject of a further assay is SW480. The assay can be described thus: Cytotoxicity against human SW480 cells after 48 hrs by MTT assay. The following applies: SW480, 48 h.
Another assay concerns SMMC-7721. Put plainly: Cytotoxicity against human SMMC7721 cells after 48 hrs by MTT assay. The following applies: SMMC-7721, 48 h.
For the next assay, the system named is HL-60. Put plainly: Cytotoxicity against human HL60 cells after 48 hrs by MTT assay. The following applies: HL-60, 48 h.
A further assay has as its system MCF7. The assay can be described thus: Cytotoxicity against human MCF7 cells after 48 hrs by MTT assay. The following applies: MCF7, 48 h.

A word on the IC50: it is the point on the concentration scale where inhibition reaches its midpoint. For the compound `O=C(C[n+]1cn(C(c2ccccc2)c2ccc3oc4ccccc4c3c2)c2ccccc21)c1ccc(F)cc1` (stereo not given), the IC50 turned out to be 12.1 µM with A549; 3.6 µM with SW480; 3.57 µM with SMMC-7721; 2180 nM in the assay with HL-60; 1.87 µM in the assay on MCF7.
On the same counts, the results for `Cc1n(C(c2ccccc2)c2ccc3oc4ccccc4c3c2)cc[n+]1CC(=O)c1ccc(O)cc1` (stereo not given) are 26.2 µM, 14.3 µM, 8.84 µM, 3920 nM and 11.8 µM.
On the same counts, the results for `CC(c1ccc2oc3ccccc3c2c1)n1c[n+](CC(=O)c2ccccc2)c2ccccc21` (stereo not given) are 18.1 µM, 14.6 µM, 8.51 µM, 2460 nM and 12.5 µM.
In the same order, the values of `CCCC[n+]1ccn(C(C)c2ccc3oc4ccccc4c3c2)c1` (stereo not given) are 12.8 µM, 24.1 µM, 14.2 µM, 5630 nM and 9.11 µM.
With `Cc1nccn1C(c1ccccc1)c1ccc2oc3ccccc3c2c1` (stereo not given), the IC50 in the assay on A549 is 18.2 µM; with SW480, greater than 40 µM; in the assay with SMMC-7721 it was 30.2 µM; with HL-60 it was 14500 nM; in the assay on MCF7 it was 23.5 µM.
For `Cc1n(C(c2ccccc2)c2ccc3oc4ccccc4c3c2)cc[n+]1CC(=O)c1ccc(Br)cc1` (stereo not given), the IC50 in the assay on A549 was 9.46 µM; in the assay on SW480 it was 1.98 µM; in the assay with SMMC-7721 it was 3.93 µM; in the assay on HL-60, 2250 nM; with MCF7 it was 3.45 µM.
In the same order, the values of `CC(c1ccc2oc3ccccc3c2c1)n1c[n+](CC(=O)c2ccc(O)cc2)c2ccccc21` (stereo not given) are 20.1 µM, 16.3 µM, 24.1 µM, 2350 nM and 14.2 µM.
In the same order, the values of `O=C(C[n+]1ccn(C(c2ccccc2)c2ccc3oc4ccccc4c3c2)c1)c1ccc(F)cc1` (stereo not given) are 10.2 µM, 5.16 µM, 14.5 µM, 3000 nM and 4 µM.
In the same order, the values of `O=[N+]([O-])c1ccc(C[n+]2cn(C(c3ccccc3)c3ccc4oc5ccccc5c4c3)c3ccccc32)cc1` (stereo not given) are 21.7 µM, 16.7 µM, 13.2 µM, 4600 nM and 9.26 µM.
For `Cc1n(C(c2ccccc2)c2ccc3oc4ccccc4c3c2)cc[n+]1CC(=O)c1ccc(F)cc1` (stereo not given), the IC50 with A549 is 4.88 µM; in the assay with SW480 it was 1.89 µM; with SMMC-7721, 4.22 µM; in the assay on HL-60, 2130 nM; with MCF7 it was 3.23 µM.
On the same counts, the results for `CC(c1ccc2oc3ccccc3c2c1)n1cc[n+](CC(=O)c2ccc(Br)cc2)c1` (stereo not given) are 13.7 µM, 6.85 µM, 11 µM, 2950 nM and 4.08 µM.
In the same order, the values of `CCCC[n+]1cn(C(C)c2ccc3oc4ccccc4c3c2)c2ccccc21` (stereo not given) are 8.55 µM, 11.1 µM, 3.78 µM, 1670 nM and 9.41 µM.
In the same order, the values of `Cc1n(C(C)c2ccc3oc4ccccc4c3c2)cc[n+]1CC(=O)c1ccc(Br)cc1` (stereo not given) are 12.8 µM, 11.8 µM, 6.4 µM, 2670 nM and 6.77 µM.
In the case of `O=C(C[n+]1ccn(C(c2ccccc2)c2ccc3oc4ccccc4c3c2)c1)c1ccccc1` (stereo not given), the IC50 in the assay with A549 turned out to be 17.7 µM; with SW480, 9.05 µM; with SMMC-7721, 11.4 µM; in the assay with HL-60 it was 2140 nM; in the assay on MCF7, 6.29 µM.
Turning to `CCCC[n+]1ccn(C(c2ccccc2)c2ccc3oc4ccccc4c3c2)c1C` (stereo not given), the IC50 in the assay with A549 stood at 21.4 µM; with SW480, 28.4 µM; with SMMC-7721, 13.1 µM; with HL-60, 3810 nM; in the assay on MCF7 it was 11.9 µM.
